The values below come from patent US20130302445A1, “APPARATUS AND METHOD FOR TREATING CEREBRAL ISCHEMIA USING NON-INHALED CARBON DIOXIDE” (priority 2012, published 2013).

In one data set the test system is awake humans. The experiment in a line: Tolerability of intranasal CO2 delivery in awake humans. Format: in vivo, human. An excerpt:
While CO2 may be given to intubated, comatose individuals, the tolerability of intranasal gas delivery in awake humans has not previously been investigated. We have systematically tested the tolerability and effect of CO2 during intranasal delivery. CO2 elicits intense burning and stinging sensations which are intolerable above 16%. […] So individuals who are awake, such as stroke patients, these lower concentrations would be recommended. The current invention delivers CO2, or a combination of gases into the nasal or oral cavity but prevents its inhalation for the purposes of improving outcome from cerebral ischemia. […] In the embodiment with the anterior occlusion or “clip,” the CO2 could escape via a valve or exit tube or be suctioned out into a vacuumed container.

For another data set, the system named is intubated patients. Conditions: hypercarbia from reduced ventilation rate; cited from earlier work.
Data set [1] has as its system cerebral blood flow in rats. As to the kind of experiment: Intranasal or intra-oral delivery of non-inhaled CO2 with air ventilation through a tracheostomy; cerebral blood flow and arterial gases. Format: in vivo. Conditions: rat. An excerpt: When CO2 s inhaled through the nose or mouth into the pulmonary circulation, it passes into the systemic blood stream through the alveoli. Once it reaches the brain, it diffuses out into the csf to exert its effect. As more CO2 is inhaled into the lungs and absorbed into the systemic circulation, arterial CO2 concentration (PaCO2) rises, hydrogen ions are produced and arterial pH falls, creating an acidosis. Acidosis leads to narcosis, and ultimately coma and death. Less severe signs of CO2 inhalation in non-intubated patients include headaches, sweating and hyperventilation. […] Inhalation is prevented by ventilating the animal through a tracheostomy with air while delivering the experimental gas intranasally (or intra orally).
The increase is the same with 100% and with 50% gas concentration. […] Decline following discontinuation is somewhat slower than rise during delivery.
(§1) Referring now to FIG. 3, it can be seen that the increase in cbf is attributable to focal intranasal or intra-oral effect rather than to systemic absorption of CO2. […] At this very high concentration, sufficient CO2 must be absorbed focally, intracranially, into the cerebral circulation to appear in measurable amounts in the systemic circulation. It cannot be concluded, therefore, that the increase in cbf is caused by a purely local action of CO2 rather than being secondary to systemic absorption. […] The effect on cbf during intranasal or intra oral delivery of CO2 with concomitant air inhalation into the lungs is therefore a focal effect on intranasal and intracranial vasculature rather than secondary to systemic absorption.

Data set [2] has as its system cerebral blood flow in rats. As to the kind of experiment: CO2 delivered into the lungs (systemic challenge); cerebral blood flow and arterial gases. In kind it is in vivo. The following applies: rat, delivery into lungs.
From the text: as §1

The mark [3] stands for this setting: 50% CO2 intranasal, air into lungs.

As for `O=C=O` [CO2, carbon dioxide], in the data set with awake humans, the “CO2 concentration above which burning and stinging sensations are intolerable” value is listed as “above 16%”. In the data set on awake humans (16% or below, sensations abate over a few minutes), the “tolerability of sensations at 16% CO2 or below” value was “quite tolerable”. In addition, the “increase in cbf per mm Hg increase in arterial CO2 over 45 mm” value in the data set on intubated patients was 4%. Further, in data set [1] (setting [3]), the “arterial pH, intranasal CO2 concentration 50%” value was “without any detectable increase in systemic PaCO2 or fall of pH”; the “cbf, intranasal CO2 concentration 50%” value is “doubles”; the “systemic PaCO2, intranasal CO2 concentration 50%” value is on record as “without any detectable increase”. Further, in data set [1] (100% CO2 intranasal), the “cbf, 100% CO2 delivered intranasally” value was “also increases” and the “systemic CO2, 100% CO2 delivered intranasally, compared with lung delivery” value is recorded as “far less increase”. Also, the “onset of cbf increase after start of delivery” value in data set [1] (intranasal or intra-oral, non-inhaled) is recorded as “within seconds”. For the same compound, the “cbf during intranasal or intra-oral delivery of CO2” value in data set [1] (non-inhaled, increase the same with 100% and 50% gas concentration) was “more than doubled”. Also, in data set [2], the “arterial CO2 concentration when CO2 is delivered into the lungs” value is given as “rapidly increases”, the “arterial pH when CO2 is delivered into the lungs” value is recorded as “falls” and the “cbf when CO2 is delivered into the lungs” value is “increases sharply”.
